# Test results: patent US10933056B2, “3-(1H-pyrazol-4-yl)pyridine allosteric modulators of the M4 muscarinic acetylcholine receptor” (Merck Sharp & Dohme Corp., priority 2015, dated 2021)
# pEC50: −log10 of the molar value.
# Target: T1, human M4 muscarinic acetylcholine receptor (Homo sapiens, UniProt P08173)
# T1 construct: expressed in transfected cells; host or cells: CHO-K1
# T1 sequence (P08173 1-479): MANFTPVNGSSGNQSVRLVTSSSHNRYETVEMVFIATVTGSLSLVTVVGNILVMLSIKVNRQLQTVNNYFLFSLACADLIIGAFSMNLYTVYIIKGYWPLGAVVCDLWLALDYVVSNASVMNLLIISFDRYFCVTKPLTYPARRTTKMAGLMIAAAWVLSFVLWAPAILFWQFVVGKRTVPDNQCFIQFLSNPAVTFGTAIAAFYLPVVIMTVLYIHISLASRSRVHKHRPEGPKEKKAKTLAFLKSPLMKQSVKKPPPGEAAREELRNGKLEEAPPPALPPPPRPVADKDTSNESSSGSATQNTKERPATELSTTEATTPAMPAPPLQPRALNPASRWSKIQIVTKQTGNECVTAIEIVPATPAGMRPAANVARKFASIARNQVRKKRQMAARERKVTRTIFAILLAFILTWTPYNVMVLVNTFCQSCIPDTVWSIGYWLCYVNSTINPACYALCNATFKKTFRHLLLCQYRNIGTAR
# Test: human FLIPR-based M4 PAM assay (calcium mobilization in CHO-K1 cells with human M4 receptor and Gαqi5)
# Assay type: cell-based
# Details: inflection point of dose response curve, acetylcholine at 20% of maximum response, FLIPR Tetra, read-out: M4 PAM IP
# Summary of the method: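 CHO-K1 cells stably expressing human M4 and chimeric Gαqi5 were dye-loaded ~1 h at 37° C. Test compound was added with fluorescence recorded 4 min, then acetylcholine at EC20 (sometimes a further EC70 addition) with reading 3.5 min. Value is the inflection point of a 4-parameter logistic fit.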
row,SMILES,pEC50
1,"O=C1c2cc(-c3ncccc3-c3cnn(CC4CCCC4)c3)ccc2CN1CCc1ccc(O)cc1 [Example 94, 6-(3-(1-(cyclopentylmethyl)-1H-pyrazol-4-yl)pyridin-2-yl)-2-(4-hydroxyphenethyl)isoindolin-1-one]",7.54
2,"CN1Cc2ncc(-c3nc(C#N)ccc3-c3cnn(CC4(C)CCCC4)c3)cc2C1=O [Example 95, 6-(6-Methyl-5-oxo-6,7-dihydro-5H-pyrrolo[3,4-b]pyridin-3-yl)-5-(1-((1-methylcyclopentyl)methyl)-1H-pyrazol-4-yl)picolinonitrile]",7.68
3,"Cc1ccc(-c2cnn(CC3(C)CCCC3)c2)c(-c2ccc3c(c2)C(=O)N(C)C3=O)n1 [Example 98, 2-methyl-5-(6-methyl-3-(1-((1-methylcyclopentyl)methyl)-1H-pyrazol-4-yl)pyridin-2-yl)isoindoline-1,3-dione]",7.54
4,"CC1(Cn2cc(-c3ccc(C#N)nc3-c3cnc4c(c3)C(=O)NC4)cn2)CCCC1 [Example 101, 5-(1-((1-methylcyclopentyl)methyl)-1H-pyrazol-4-yl)-6-(5-oxo-6,7-dihydro-5H-pyrrolo[3,4-b]pyridin-3-yl)picolinonitrile]",7.74
5,"CC1(Cn2cc(-c3ccc(C#N)nc3-c3cnc4c(c3)C(=O)N(CC3CC3)C4)cn2)CCCC1 [Example 102, 6-(6-(cyclopropylmethyl)-5-oxo-6,7-dihydro-5H-pyrrolo[3,4-b]pyridin-3-yl)-5-(1-((1-methylcyclopentyl)methyl)-1H-pyrazol-4-yl)picolinonitrile]",7.46
6,"CC1(Cn2cc(-c3ccc(C#N)nc3-c3cnc4c(c3)C(=O)N(CCF)C4)cn2)CCCC1 [Example 103, 6-(6-(2-fluoroethyl)-5-oxo-6,7-dihydro-5H-pyrrolo[3,4-b]pyridin-3-yl)-5-(1-((1-methylcyclopentyl)methyl)-1H-pyrazol-4-yl)picolinonitrile]",7.48
7,"Cc1ccc(-c2cnn(CC3(C)CCCC3)c2)c(-c2ccc3c(c2)C(=O)NC3)n1 [Example 104, 6-(6-methyl-3-(1-((1-methylcyclopentyl)methyl)-1H-pyrazol-4-yl)pyridin-2-yl)isoindolin-1-one]",7.85
8,"CN1Cc2ccc(-c3nc(Cl)ccc3-c3cnn(CC4CCCC4)c3)cc2C1=O [Example 107, 6-(6-Chloro-3-(1-(cyclopentylmethyl)-1H-pyrazol-4-yl)pyridin-2-yl)-2-methylisoindolin-1-one]",7.82
9,"CN1Cc2ccc(-c3nc(C#N)ccc3-c3cn(CC4(C)CCCC4)nc3C#N)cc2C1=O [Example 110, 5-(3-Cyano-1-((1-methylcyclopentyl)methyl)-1H-pyrazol-4-yl)-6-(2-methyl-3-oxoisoindolin-5-yl)picolinonitrile]",7.07
10,"Cc1cc(-c2cnn(CC3(C)CCCC3)c2)c(-c2ccc3c(c2)C(=O)N(C)C3)nc1C#N [Example 111, 3-Methyl-6-(2-methyl-3-oxoisoindolin-5-yl)-5-(1-((1-methylcyclopentyl)methyl)-1H-pyrazol-4-yl)picolinonitrile]",7.46
11,"Cc1cc(-c2cnn(CC3(C)CCCC3)c2)c(-c2cnc3c(c2)C(=O)N(C)C3)nc1C#N [Example 112, 3-methyl-6-(6-methyl-5-oxo-6,7-dihydro-5H-pyrrolo[3,4-b]pyridin-3-yl)-5-(1-((1-methylcyclopentyl)-methyl)-1H-pyrazol-4-yl)picolinonitrile]",7.57
12,"CN1Cc2ccc(-c3nc(CF)c(F)cc3-c3cnn(CC4(C)CCCC4)c3)cc2C1=O [Example 115, 6-(5-fluoro-6-(fluoromethyl)-3-(1-((1-methylcyclo-pentyl)-methyl)-1H-pyrazol-4-yl)pyridin-2-yl)-2-methylisoindolin-1-one]",7.33
13,"COCc1nc(-c2ccc3c(c2)C(=O)N(C)C3)c(-c2cnn(CC3(C)CCCC3)c2)cc1C [Example 116, 6-(6-(Methoxymethyl)-5-methyl-3-(1-((1-methylcyclopentyl)methyl)-1H-pyrazol-4-yl)pyridin-2-yl)-2-methylisoindolin-1-one]",6.49
14,"C#CCN1Cc2ncc(-c3nc(CF)ccc3-c3cnn(CC4(C)CCCC4)c3)cc2C1=O [Example 117, 3-(6-(Fluoromethyl)-3-(1-((1-methylcyclopentyl)methyl)-1H-pyrazol-4-yl)pyridin-2-yl)-6-(prop-2-yn-1-yl)-6,7-dihydro-5H-pyrrolo[3,4-b]pyridin-5-one]",7.49
15,"CC#CCN1Cc2ncc(-c3nc4c(cc3-c3cnn(CC5(C)CCCC5)c3)CCC4)cc2C1=O [Example 119, 6-(but-2-yn-1-yl)-3-(3-(1-((1-methylcyclopentyl)methyl)-1H-pyrazol-4-yl)-6,7-dihydro-5H-cyclopenta[b]pyridin-2-yl)-6,7-dihydro-5H-pyrrolo[3,4-b]pyridin-5-one]",7.15

# Now from value to compound:
row,pEC50,SMILES
1,7.25,"CN1Cc2ccc(-c3ncccc3-c3cnn(CC4CCCC4)c3)cc2C1=O [Example 96, 6-(3-(1-(cyclopentylmethyl)-1H-pyrazol-4-yl)pyridin-2-yl)-2-methylisoindolin-1-one]"
2,7.80,"Cc1ccc(-c2cnn(CC3CCCC3)c2)c(-c2ccc3c(c2)C(=O)N(C)C3)n1 [Example 97, 6-(3-(1-(cyclopentylmethyl)-1H-pyrazol-4-yl)-6-methylpyridin-2-yl)-2-methylisoindolin-1-one]"
3,7.72,"Cc1ccc(-c2cnn(CC3(C)CCCC3)c2)c(-c2ccc3c(c2)C(=O)NC3=O)n1 [Example 99, 5-(6-methyl-3-(1-((1-methylcyclopentyl)methyl)-1H-pyrazol-4-yl)pyridin-2-yl)isoindoline-1,3-dione]"
4,7.59,"Cc1cc(-c2cnn(CC3(C)CCCC3)c2)c(-c2cnc3c(c2)C(=O)N(C)C3)nc1Cl [Example 100, 3-(6-chloro-5-methyl-3-(1-((1-methylcyclopentyl)methyl)-1H-pyrazol-4-yl)pyridin-2-yl)-6-methyl-6,7-dihydro-5H-pyrrolo[3,4-b]pyridin-5-one]"
5,7.44,"CC1(Cn2cc(-c3ccc(C#N)nc3-c3cnc4c(c3)C(=O)N(C3CC3)C4)cn2)CCCC1 [Example 105, 6-(6-cyclopropyl-5-oxo-6,7-dihydro-5H-pyrrolo[3,4-b]pyridin-3-yl)-5-(1-((1-methylcyclopentyl)methyl)-1H-pyrazol-4-yl)picolinonitrile]"
6,7.37,"CC1(Cn2cc(-c3ccc(Cl)nc3-c3cnc4c(c3)C(=O)N(CC3CC3)C4)cn2)CCCC1 [Example 106, 3-(6-chloro-3-(1-((1-methylcyclopentyl)methyl)-1H-pyrazol-4-yl)pyridin-2-yl)-6-(cyclopropylmethyl)-6,7-dihydro-5H-pyrrolo[3,4-b]pyridin-5-one]"
7,7.77,"O=C1c2cc(-c3nc(Cl)ccc3-c3cnn(CC4CCCC4)c3)ccc2CN1C1CC1 [Example 108, 6-(6-chloro-3-(1-(cyclopentylmethyl)-1H-pyrazol-4-yl)pyridin-2-yl)-2-cyclopropylisoindolin-1-one]"
8,7.32,"Cc1cc(-c2cnn(CC3(C)CCCC3)c2)c(-c2ccc3c(c2)C(=O)N(C)C3)nc1C [Example 109, 6-(5,6-Dimethyl-3-(1-((1-methylcyclopentyl)methyl)-1H-pyrazol-4-yl)pyridin-2-yl)-2-methylisoindolin-1-one]"
9,7.44,"Cc1cc(-c2cnn(CC3(C)CCCC3)c2)c(-c2ccc3c(c2)C(=O)NC3)nc1C#N [Example 112A, 3-methyl-5-(1-((1-methylcyclopentyl)methyl)-1H-pyrazol-4-yl)-6-(3-oxoisoindolin-5-yl)picolinonitrile]"
10,7.16,"Cc1cc(-c2cnn(CC3(C)CCCC3)c2)c(-c2ccc3c(c2)C(=O)N(C)C3)nc1C(N)=O [Example 113, 3-Methyl-6-(2-methyl-3-oxoisoindolin-5-yl)-5-(1-((1-methylcyclopentyl)methyl)-1H-pyrazol-4-yl)picolinamide]"
11,6.69,"CC1(Cn2cc(-c3ccc(C(N)=O)nc3-c3ccc4c(c3)C(=O)NC4)cn2)CCCC1 [Example 113A, 5-(1-((1-methylcyclopentyl)methyl)-1H-pyrazol-4-yl)-6-(3-oxoisoindolin-5-yl)picolinamide]"
12,7.24,"Cc1cc(-c2cnn(CC3(C)CCCC3)c2)c(-c2ccc3c(c2)C(=O)N(C)C3)nc1CF [Example 114, 6-(6-(Fluoromethyl)-5-methyl-3-(1-((1-methylcyclopentyl)methyl)-1H-pyrazol-4-yl)pyridin-2-yl)-2-methylisoindolin-1-one]"
13,7.10,"C#CCN1Cc2ncc(-c3nc4c(cc3-c3cnn(CC5(C)CCCC5)c3)CCC4)cc2C1=O [Example 118, 3-(3-(1-((1-methylcyclopentyl)methyl)-1H-pyrazol-4-yl)-6,7-dihydro-5H-cyclopenta[b]pyridin-2-yl)-6-(prop-2-yn-1-yl)-6,7-dihydro-5H-pyrrolo[3,4-b]pyridin-5-one]"
14,7.30,"CC1(Cn2cc(-c3cc4c(nc3-c3cnc5c(c3)C(=O)N(CCF)C5)CCC4)cn2)CCCC1 [Example 118A, 6-(2-fluoroethyl)-3-(3-(1-((1-methylcyclopentyl)methyl)-1H-pyrazol-4-yl)-6,7-dihydro-5H-cyclopenta[b]pyridin-2-yl)-6,7-dihydro-5H-pyrrolo[3,4-b]pyridin-5-one]"
